Experiment [1] deals with T1, PPARγ (Homo sapiens, UniProt P37231).
T1 construct: expressed in transfected cells; host or cells: CHO-K1
T1 sequence (P37231 1-477 isoform P37231-2): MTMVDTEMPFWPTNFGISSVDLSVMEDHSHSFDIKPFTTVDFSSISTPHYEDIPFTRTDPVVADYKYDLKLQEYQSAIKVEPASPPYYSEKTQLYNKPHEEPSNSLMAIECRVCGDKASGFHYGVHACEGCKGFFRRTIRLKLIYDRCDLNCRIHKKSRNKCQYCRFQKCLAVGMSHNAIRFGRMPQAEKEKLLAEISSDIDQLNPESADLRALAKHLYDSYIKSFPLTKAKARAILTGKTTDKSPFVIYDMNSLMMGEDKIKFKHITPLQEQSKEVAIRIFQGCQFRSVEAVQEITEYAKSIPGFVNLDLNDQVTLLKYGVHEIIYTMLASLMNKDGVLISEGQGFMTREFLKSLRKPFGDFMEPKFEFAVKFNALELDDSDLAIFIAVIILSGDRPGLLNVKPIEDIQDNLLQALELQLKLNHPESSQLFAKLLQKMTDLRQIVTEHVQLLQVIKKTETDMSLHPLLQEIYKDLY
T1 sequence (P19793 1-462 partner): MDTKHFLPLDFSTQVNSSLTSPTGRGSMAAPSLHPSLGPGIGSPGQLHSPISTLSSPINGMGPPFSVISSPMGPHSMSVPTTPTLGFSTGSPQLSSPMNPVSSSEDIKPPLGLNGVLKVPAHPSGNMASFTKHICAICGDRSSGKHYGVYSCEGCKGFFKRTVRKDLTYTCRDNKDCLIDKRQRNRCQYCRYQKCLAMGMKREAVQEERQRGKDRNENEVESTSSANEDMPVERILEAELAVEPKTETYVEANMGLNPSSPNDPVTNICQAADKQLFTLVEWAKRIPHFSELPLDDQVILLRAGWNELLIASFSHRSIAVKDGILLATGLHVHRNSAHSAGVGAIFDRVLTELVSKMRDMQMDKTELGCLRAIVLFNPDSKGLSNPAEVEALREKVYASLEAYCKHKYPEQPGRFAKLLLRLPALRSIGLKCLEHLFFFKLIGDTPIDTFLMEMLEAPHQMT
As to the kind of experiment: Evaluation of PPARγ activating action (luciferase reporter in PPARγ:RXRα:4ERPP/CHO-K1 cells). In kind it is cell-based. The following applies: CHO-K1, 24 h; test compound 10^−6 M; luciferase activity relative to control compound X (1 μM) = 100%, non-administration group = 0%; read-out: PPARγ activating action (activation % (10^−6 M)). The method, then: PPARγ:RXRα:4ERPP/CHO-K1 cells obtained in the following Reference Example 5 were cultured in F12 medium [manufactured by INVITROGEN, USA] containing 10% fetal bovine serum [manufactured by MOREGATE, Australia], seeded in a 96-well half area white plate [manufactured by Corning Coster Corporation, USA] at the density of 5×10^3 cells/well and cultured in a CO2 gas incubator at 37° C. overnight.
Then the medium was removed from the 96-well half area white plate, 45 μl of Ham's F12 medium containing 0.1% fatty acid-free bovine serum albumin (BSA) and 5 μl of test compound were added, and the cells were cultured in a CO2 gas incubator at 37° C. for 1 day. The medium was removed and 20 μl of PicaGene 7.5 [manufactured by TOYO INK MFG. CO., LTD.,.Japan] diluted 2-fold with HBSS (HANKS' BALANCED SALT SOLUTION) [manufactured by BIO WHITTAKER, USA] was added. After stirring, the luciferase activity was determined using 1420 ARVO Multilabel Counter [manufactured by PerkinElmer, USA].
The percent (%) was calculated from the luciferase activity of each test compound when the luciferase activity of the control compound (compound X: 5-[3-(4-{[2-(2-furyl)-5-methyl-1,3-oxazol-4-yl]methoxy}-3-methoxyphenyl)propyl]-1,3-oxazolidine-2,4-dione) (1 μM) was 100% and that of the test compound non-administration group was 0%.
A CHO-K1 cell cultured in a 150 cm^2 cell culture flask [manufactured by Corning Costar Corporation, USA] containing Ham's F12 medium [manufactured by INVITROGEN, USA] supplemented with 10% fetal bovine serum [manufactured by INVITROGEN, USA] was scraped by treating with 0.5 g/L trypsin-0.2 g/L EDTA (ethylenediaminetetraacetic acid) [manufactured by Life Technologies, Inc., USA], and then the cell was washed with PBS (Phosphate-buffered saline) [manufactured by INVITROGEN, USA], centrifuged (1000 rpm, 5 minutes) and suspended in PBS. Subsequently, DNA was introduced into the cell under the conditions shown below using GENE PULSER [manufactured by Bio-Rad Laboratories, USA].
Namely, to a cuvette having a 0.4 cm gap were added 8×10^6 cells and 10 μg of plasmid pVgRXR2-hPPARγ obtained in Reference Example 4 and 10 μg of reporter plasmid pGL3-4ERPP-TK neo obtained in Reference Example 3, which was subjected to electroporation at the voltage of 0.25 kV under the capacitance of 960 μF. Subsequently, the cell was transferred into a F12 medium containing 10% fetal bovine serum and cultured for 24 hours, and then the cell was scraped again and centrifuged, and then suspended in Ham's F12 medium containing 10% fetal bovine serum supplemented with 500 μg/ml of Geneticin [manufactured by INVITROGEN, USA] and 250 μg/ml of Zeocin [manufactured by INVITROGEN, USA]. The obtained suspension was diluted to the density of 10^4 cells/ml and inoculated in a 96-well plate [manufactured by Corning Costar Corporation, USA], which was cultured in a CO2 gas incubator at 37° C., whereby obtaining a Geneticin- and Zeocin-resistant transformant.
Subsequently, after the transformant cell line thus obtained was cultured in a 24-well plate [manufactured by Corning Costar Corporation, USA], a cell line in which the luciferase was expressed and induced, i.e., PPARγ:RXRα:4ERPP/CHO-K1 cell was selected by the addition of 10 μM pioglitazone hydrochloride.
For orientation: In a reporter assay the amount or activity of a reporter protein is the signal.

The target in experiment [2] is T2, human AT1 receptor (Homo sapiens, UniProt P30556).
T2 construct: expressed in transfected cells; host or cells: CHO-K1
T2 sequence (P30556 1-359): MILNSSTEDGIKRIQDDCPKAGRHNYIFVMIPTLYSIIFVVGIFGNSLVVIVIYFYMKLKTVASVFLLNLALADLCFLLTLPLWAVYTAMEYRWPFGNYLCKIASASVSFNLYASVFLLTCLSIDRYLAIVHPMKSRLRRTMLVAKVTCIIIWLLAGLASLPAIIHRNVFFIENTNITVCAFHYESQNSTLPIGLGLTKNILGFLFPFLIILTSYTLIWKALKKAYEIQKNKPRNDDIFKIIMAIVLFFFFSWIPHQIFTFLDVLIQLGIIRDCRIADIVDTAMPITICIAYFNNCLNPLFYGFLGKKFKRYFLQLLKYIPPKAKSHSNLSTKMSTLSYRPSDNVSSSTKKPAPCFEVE
In words: Binding assay using human AT1 receptor-expressing CHO-K1 cell membrane fraction ([125I]-angiotensin II). The following applies: 22.5 pM [125I]-angiotensin II, 9 μg AT1 membrane, 1 hr room temperature; read-out: AT1 receptor binding inhibitory action (IC50 (nM)). The method, then:
The membrane fraction for human AT1 receptor binding assay was prepared as follows. CHO-K1 cell capable of stable expression of human AT1 receptor was cultured, recovered, suspended in homogenize buffer (10 mM NaHCO3 (pH 7.4), 5 mM EDTA, 1×Complete EDTA free) [manufactured by Roche, Switzerland], and homogenized. The homogenate was centrifuged at low-speed (900×g, 10 min, 4° C.), and the supernatant was recovered and ultracentrifuged (90,000×g, 1 hr, 4° C.). The supernatant was discarded, and the pellets were resuspended in resuspension buffer (50 mM Tris (pH 7.4), 1 mM EDTA, 1×Complete EDTA free).
The binding assay was performed in the presence of 22.5 pM [^125I]-angiotensin II [manufactured by PerkinElmer, USA], 9 μg of AT1 membrane and test compound in 100 μL (total reaction volume) of reaction buffer (50 mM Tris (pH 7.4), 10 mM MgCl2 supplemented or not supplemented with 0.3 mg/mL fatty acid-free bovine serum albumin [manufactured by Wako Pure Chemical Industries, Ltd., Japan]). The reaction mixture was incubated in 96 well polypropylene plate for 1 hr at room temperature, and the reaction was quenched by rapid filtration (96 well cell harvester) through a GF/C filter treated with wash buffer (50 mM Tris (pH 7.4)). Subsequently, the filter was washed 5 times with 0.3 mL of ice-cooled wash buffer. The filter was air-dried, and [^125I]-angiotensin II binding radioactivity was assayed with Top Count scintillation counter. Total binding was measured in the presence of 1% DMSO and nonspecific binding was measured in the presence of 1 μM CV-11974. The binding data was analyzed by GraphPad Prism program and the IC50 value (compound concentration showing 50% of the maximum value of inhibition percent) of the test compound was calculated.

By IC50 is commonly meant the point on the concentration scale where inhibition reaches its midpoint.

Consider `CCCCc1nc(OC)n(-c2ccccc2)c(=O)c1Cc1ccc(-c2ccccc2-c2noc(=O)[nH]2)cc1` [Example 108, 6-butyl-2-methoxy-5-{[2′-(5-oxo-4,5-dihydro-1,2,4-oxadiazol-3-yl)biphenyl-4-yl]methyl}-3-phenylpyrimidin-4(3H)-one], for which the activation at 1 µM in experiment [1] stood at 31.7%. Further, in experiment [2], the IC50 was 2.2 nM.
For the molecule `CCCc1nc(CC)n(-c2ccc(O[C@@H]3C[C@@H](C)O[C@@H](C)C3)cc2)c(=O)c1Cc1ccc(-c2ccccc2-c2noc(=O)[nH]2)cc1` [Example 417, 3-(4-{[(2R,4s,6S)-2,6-dimethyltetrahydro-2H-pyran-4-yl]oxy}phenyl)-2-ethyl-5-{[2′-(5-oxo-4,5-dihydro-1,2,4-oxadiazol-3-yl)biphenyl-4-yl]methyl}-6-propylpyrimidin-4(3H)-one], the activation at 1 µM in experiment [1] amounted to 33.7%. The IC50 in experiment [2] came to 1.6 nM.
As for `CCCc1nc(CC)n(-c2ccc(OC3CCCC(O)C3)cc2)c(=O)c1Cc1ccc(-c2ccccc2-c2noc(=O)[nH]2)cc1` (centres unmarked) [Example 422, 2-ethyl-3-{4-[(3-hydroxycyclohexyl)oxy]phenyl}-5-{[2′-(5-oxo-4,5-dihydro-1,2,4-oxadiazol-3-yl)biphenyl-4-yl]methyl}-6-propylpyrimidin-4(3H)-one], the activation at 1 µM in experiment [1] is 22.2%. Further, the IC50 in experiment [2] came out at 0.9 nM.
For `CCCCc1nc(C)n(Cc2ccccc2)c(=O)c1Cc1ccc(-c2ccccc2-c2noc(=O)[nH]2)cc1` [Example 47, 3-benzyl-6-butyl-2-methyl-5-{[2′-(5-oxo-4,5-dihydro-1,2,4-oxadiazol-3-yl)biphenyl-4-yl]methyl}pyrimidin-4(3H) -one] the same measures were 61.2% and 1.4 nM.
For `CCCc1nc(C)c(-c2ccc(OC(C)(C)CO)cc2)c(=O)n1Cc1ccc(-c2ccccc2-c2noc(=O)[nH]2)cc1F` [Example 509, 3-{[3-fluoro-2′-(5-oxo-4,5-dihydro-1,2,4-oxadiazol-3-yl)biphenyl-4-yl]methyl}-5-[4-(2-hydroxy-1,1-dimethylethoxy)phenyl]-6-methyl-2-propylpyrimidin-4(3H)-one] the same measures were 16.2% and 1.2 nM.
Regarding `CCCCc1nc(C)c(C(=O)c2ccccc2)c(=O)n1Cc1ccc(-c2ccccc2-c2noc(=O)[nH]2)cc1` [Example 453, 5-benzoyl-2-butyl-6-methyl-3-{[2′-(5-oxo-4,5-dihydro-1,2,4-oxadiazol-3-yl)biphenyl-4-yl]methyl}pyrimidin-4(3H)-one], the activation at 1 µM in experiment [1] was determined as 22.5%. The IC50 in experiment [2] came to 2.9 nM.
On to `CCCc1nc(CC)c(-c2ccc(OC(C)(C)CO)cc2)c(=O)n1Cc1ccc(-c2ccccc2-c2noc(=O)[nH]2)cc1F` [Example 511, 6-ethyl-3-{[3-fluoro-2′-(5-oxo-4,5-dihydro-1,2,4-oxadiazol-3-yl)biphenyl-4-yl]methyl}-5-[4-(2-hydroxy-1,1-dimethylethoxy)phenyl]-2-propylpyrimidin-4(3H)-one], for which the activation at 1 µM in experiment [1] stood at 31%. For the same molecule, the IC50 in experiment [2] was determined as 1.3 nM.
Consider `CCCCc1nc(C)n(Cc2cccs2)c(=O)c1Cc1ccc(-c2ccccc2-c2noc(=O)[nH]2)cc1` [Example 32, 6-butyl-2-methyl-5-{[2′-(5-oxo-4,5-dihydro-1,2,4-oxadiazol-3-yl)biphenyl-4-yl]methyl}-3-(2-thienylmethyl)pyrimidin-4(3H)-5 one], for which the activation at 1 µM in experiment [1] stood at 55.6%. The IC50 in experiment [2] came to 1.3 nM.
For `CCCCc1nc(C)n(CC2CCCCC2)c(=O)c1Cc1ccc(-c2ccccc2-c2noc(=O)[nH]2)cc1` [Example 48, 6-butyl-3-(cyclohexylmethyl)-2-methyl-5-{[2′-(5-oxo-4,5-dihydro-1,2,4-oxadiazol-3-yl)biphenyl-4-yl]methyl}pyrimidin-4(3H)-one] the same measures were 68.8% and 1.8 nM.
For the molecule `CCCc1nc(C)n(-c2ccc3c(c2)CC(C)(C)O3)c(=O)c1Cc1ccc(-c2ccccc2-c2noc(=O)[nH]2)cc1Cl` [Example 397, 5-{[3-chloro-2′-(5-oxo-4,5-dihydro-1,2,4-oxadiazol-3-yl)biphenyl-4-yl]methyl}-3-(2,2-dimethyl-2,.3-dihydro-1-benzofuran-5-yl)-2-methyl-6-propylpyrimidin-4(3H)-one], the activation at 1 µM in experiment [1] is 48.6%. In addition, in experiment [2], the IC50 worked out at 2.1 nM.

For the origin of these results see patent publication US20100056526A1, “HETEROMONOCYCLIC COMPOUND AND USE THEREOF” (Takeda Pharmaceutical Company Limited, priority 2006, published 2010).
